The source made the active and inactive calls.
What was measured:
[1] = viability of PTEN-deleted HCT116 cells – cell-based, HCT116 PTEN knockout, dose response (AID 1047); type: functional;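 further: HCT116 colon tumor cells with PTEN knocked out; cells exposed to compound for 60 hours before readout; potency for loss of cell viability measured by luminescence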
[2] = reduction of Shn3 3'UTR-driven luciferase in osteoblasts – cell-based, Clone20 osteoblasts, firefly luciferase, cherry-picked, dose response (AID 624132); type: functional;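 further: firefly luciferase luminescence from reporter carrying the Shn3 3'UTR in osteoblasts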
[3] = target: DNA dC->dU-editing enzyme APOBEC-3G (Homo sapiens, UniProt Q9HC16); test: Dose Response confirmation of small molecule APOBEC3G DNA Deaminase Inhibitors via a fluorescence-based single-stranded DNA deaminase assay. [Related pubchem assays (depositor defined):AID493012, AID493028]; type: functional
[4] = non-specific 3'UTR reporter inhibition in Clone20-Shn3RL – cell-based, Renilla luciferase, cherry-picked, counter-screen for Shn3 inhibitor project, dose response (AID 624133); type: functional
[5] = loss of viability in HepG2 cells – cell-based, CellTiter-Glo, cherry-picked, cytotoxicity control for Shn3 inhibitor project, dose response (AID 624134); type: functional
[6] = viability of HCT116 lacking mutant beta-catenin – cell-based, human colon tumor, dose response (AID 1045); type: functional;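 further: HCT116 colon tumor cells with beta catenin knocked out; cells exposed to compound for 60 hours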
[7] = target: T1, Voltage-gated N-type calcium channel alpha-1B subunit/Amyloid beta A4 precursor protein-binding family A member 1 (Homo sapiens, UniProt Q00975+Q02410); type: protein assay
[8] = target: T1, Voltage-gated N-type calcium channel alpha-1B subunit/Amyloid beta A4 precursor protein-binding family A member 1; type: protein assay; remark: listed apart in the source
[9] = target: Glucose-6-phosphate 1-dehydrogenase (Homo sapiens, UniProt P11413); test: inhibition of Homo sapiens G6PD, dose series – biochemical, fluorescence, selectivity assay for P. falciparum G6PD inhibitor project, dose response (AID 504792); type: functional
Cytochrome P450 2C9 = Cytochrome P450 2C9 (Homo sapiens, UniProt P11712); details: Potency
Cytochrome P450 3A4 = Cytochrome P450 3A4 (Homo sapiens, UniProt P08684); details: Potency;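 further: confirmatory qHTS run detecting inhibitors and substrates of CYP3A4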
[10] = viability of uninfected HEp-2 cells – cell-based, HTS, cytotoxicity control for RSV inhibitor project, dose response (AID 2410); type: functional; details: human respiratory syncytial virus
[11] = target: Glyceraldehyde-3-phosphate dehydrogenase (Homo sapiens, UniProt P04406)
[12] = target: T2, Alkaline phosphatase, tissue-nonspecific isozyme (Homo sapiens, UniProt P05186); test: potency against alkaline phosphatase TNAP – biochemical, luminescent, dose response, SAR follow-up (AID 1056)
T2 sequence (P05186 whole entry): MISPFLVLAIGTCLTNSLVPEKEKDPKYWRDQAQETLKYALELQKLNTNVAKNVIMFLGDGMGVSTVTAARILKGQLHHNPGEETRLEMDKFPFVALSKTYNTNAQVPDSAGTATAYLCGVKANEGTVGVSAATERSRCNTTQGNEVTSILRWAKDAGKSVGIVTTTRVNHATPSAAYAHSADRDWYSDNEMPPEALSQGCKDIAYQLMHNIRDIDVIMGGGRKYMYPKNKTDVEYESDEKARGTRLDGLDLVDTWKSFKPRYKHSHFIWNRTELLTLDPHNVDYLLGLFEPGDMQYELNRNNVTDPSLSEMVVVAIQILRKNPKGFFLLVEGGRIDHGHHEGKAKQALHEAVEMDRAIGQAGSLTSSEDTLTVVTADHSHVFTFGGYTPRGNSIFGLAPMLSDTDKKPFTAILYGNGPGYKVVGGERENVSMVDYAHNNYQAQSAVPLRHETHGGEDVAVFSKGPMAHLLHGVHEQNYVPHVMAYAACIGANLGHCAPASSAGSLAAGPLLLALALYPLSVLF

Beta-galactosidase = Beta-galactosidase (Escherichia coli, UniProt Q8VNN2); test: detection-enzyme interference by beta-gal modulators – biochemical, E. coli enzyme, set 3, artefact control for CCR6 antagonist project, dose response (AID 504712); type: functional
[13] = target: T3, Ubiquitin-conjugating enzyme E2 N (Homo sapiens, UniProt P61088); type: functional
T3 sequence (P61088 whole entry): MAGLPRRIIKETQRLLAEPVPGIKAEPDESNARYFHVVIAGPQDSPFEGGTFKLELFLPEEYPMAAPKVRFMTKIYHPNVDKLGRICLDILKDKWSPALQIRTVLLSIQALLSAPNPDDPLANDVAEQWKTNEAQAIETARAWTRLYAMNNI

Bcl-2-related protein A1 = target: T4, Bcl-2-related protein A1 (Mus musculus, UniProt Q07440); type: functional;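 further: confirmatory dose–response counterscreen on Bfl-1, used to check hits from a UBC13 polyubiquitin inhibitor campaign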
T4 sequence (Q07440 whole entry): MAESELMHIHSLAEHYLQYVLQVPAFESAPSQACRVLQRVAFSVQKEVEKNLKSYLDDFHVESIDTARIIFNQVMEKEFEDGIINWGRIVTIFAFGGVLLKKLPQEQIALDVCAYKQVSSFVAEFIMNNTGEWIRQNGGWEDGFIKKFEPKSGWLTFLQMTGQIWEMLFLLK

[14] = target: T3, Ubiquitin-conjugating enzyme E2 N; type: functional; remark: listed apart in the source

Cytochrome P450 2C9, sequence (P11712 whole entry): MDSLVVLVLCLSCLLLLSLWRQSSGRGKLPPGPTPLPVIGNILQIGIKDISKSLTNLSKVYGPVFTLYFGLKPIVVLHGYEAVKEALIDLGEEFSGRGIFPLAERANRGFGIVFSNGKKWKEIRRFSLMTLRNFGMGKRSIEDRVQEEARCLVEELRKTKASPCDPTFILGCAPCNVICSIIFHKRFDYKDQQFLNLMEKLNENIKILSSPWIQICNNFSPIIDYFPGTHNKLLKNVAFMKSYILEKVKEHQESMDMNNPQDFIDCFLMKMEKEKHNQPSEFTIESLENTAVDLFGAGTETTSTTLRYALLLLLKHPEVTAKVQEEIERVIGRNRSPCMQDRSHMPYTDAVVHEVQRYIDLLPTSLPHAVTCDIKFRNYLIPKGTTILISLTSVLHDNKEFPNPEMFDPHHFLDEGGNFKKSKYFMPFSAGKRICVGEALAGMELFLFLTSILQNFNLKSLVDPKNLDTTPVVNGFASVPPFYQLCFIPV
Glyceraldehyde-3-phosphate dehydrogenase, sequence (P04406 whole entry): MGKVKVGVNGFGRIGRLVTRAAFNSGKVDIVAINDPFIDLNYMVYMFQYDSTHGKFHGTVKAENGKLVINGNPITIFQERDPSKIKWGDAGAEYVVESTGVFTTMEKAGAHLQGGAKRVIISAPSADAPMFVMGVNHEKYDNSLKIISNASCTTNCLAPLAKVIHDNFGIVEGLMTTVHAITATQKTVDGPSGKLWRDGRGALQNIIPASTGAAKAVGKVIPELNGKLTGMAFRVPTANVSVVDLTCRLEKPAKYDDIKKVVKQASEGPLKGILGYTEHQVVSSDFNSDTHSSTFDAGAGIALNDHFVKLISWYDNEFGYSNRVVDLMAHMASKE
Cytochrome P450 3A4, sequence (P08684 whole entry): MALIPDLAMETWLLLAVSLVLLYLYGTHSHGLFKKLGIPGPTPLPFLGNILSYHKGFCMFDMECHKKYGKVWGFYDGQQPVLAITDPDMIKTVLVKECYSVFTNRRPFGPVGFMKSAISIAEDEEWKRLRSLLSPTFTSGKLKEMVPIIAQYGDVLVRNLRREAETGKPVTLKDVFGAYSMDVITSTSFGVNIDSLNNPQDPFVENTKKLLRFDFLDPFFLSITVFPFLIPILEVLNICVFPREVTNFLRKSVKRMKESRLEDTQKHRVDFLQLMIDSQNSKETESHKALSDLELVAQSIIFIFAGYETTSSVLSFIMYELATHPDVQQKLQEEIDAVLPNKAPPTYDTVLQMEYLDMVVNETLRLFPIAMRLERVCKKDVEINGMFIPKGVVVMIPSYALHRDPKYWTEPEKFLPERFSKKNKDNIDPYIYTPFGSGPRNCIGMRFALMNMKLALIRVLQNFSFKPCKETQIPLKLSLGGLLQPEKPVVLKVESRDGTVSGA
T1 sequence (Q00975 whole entry): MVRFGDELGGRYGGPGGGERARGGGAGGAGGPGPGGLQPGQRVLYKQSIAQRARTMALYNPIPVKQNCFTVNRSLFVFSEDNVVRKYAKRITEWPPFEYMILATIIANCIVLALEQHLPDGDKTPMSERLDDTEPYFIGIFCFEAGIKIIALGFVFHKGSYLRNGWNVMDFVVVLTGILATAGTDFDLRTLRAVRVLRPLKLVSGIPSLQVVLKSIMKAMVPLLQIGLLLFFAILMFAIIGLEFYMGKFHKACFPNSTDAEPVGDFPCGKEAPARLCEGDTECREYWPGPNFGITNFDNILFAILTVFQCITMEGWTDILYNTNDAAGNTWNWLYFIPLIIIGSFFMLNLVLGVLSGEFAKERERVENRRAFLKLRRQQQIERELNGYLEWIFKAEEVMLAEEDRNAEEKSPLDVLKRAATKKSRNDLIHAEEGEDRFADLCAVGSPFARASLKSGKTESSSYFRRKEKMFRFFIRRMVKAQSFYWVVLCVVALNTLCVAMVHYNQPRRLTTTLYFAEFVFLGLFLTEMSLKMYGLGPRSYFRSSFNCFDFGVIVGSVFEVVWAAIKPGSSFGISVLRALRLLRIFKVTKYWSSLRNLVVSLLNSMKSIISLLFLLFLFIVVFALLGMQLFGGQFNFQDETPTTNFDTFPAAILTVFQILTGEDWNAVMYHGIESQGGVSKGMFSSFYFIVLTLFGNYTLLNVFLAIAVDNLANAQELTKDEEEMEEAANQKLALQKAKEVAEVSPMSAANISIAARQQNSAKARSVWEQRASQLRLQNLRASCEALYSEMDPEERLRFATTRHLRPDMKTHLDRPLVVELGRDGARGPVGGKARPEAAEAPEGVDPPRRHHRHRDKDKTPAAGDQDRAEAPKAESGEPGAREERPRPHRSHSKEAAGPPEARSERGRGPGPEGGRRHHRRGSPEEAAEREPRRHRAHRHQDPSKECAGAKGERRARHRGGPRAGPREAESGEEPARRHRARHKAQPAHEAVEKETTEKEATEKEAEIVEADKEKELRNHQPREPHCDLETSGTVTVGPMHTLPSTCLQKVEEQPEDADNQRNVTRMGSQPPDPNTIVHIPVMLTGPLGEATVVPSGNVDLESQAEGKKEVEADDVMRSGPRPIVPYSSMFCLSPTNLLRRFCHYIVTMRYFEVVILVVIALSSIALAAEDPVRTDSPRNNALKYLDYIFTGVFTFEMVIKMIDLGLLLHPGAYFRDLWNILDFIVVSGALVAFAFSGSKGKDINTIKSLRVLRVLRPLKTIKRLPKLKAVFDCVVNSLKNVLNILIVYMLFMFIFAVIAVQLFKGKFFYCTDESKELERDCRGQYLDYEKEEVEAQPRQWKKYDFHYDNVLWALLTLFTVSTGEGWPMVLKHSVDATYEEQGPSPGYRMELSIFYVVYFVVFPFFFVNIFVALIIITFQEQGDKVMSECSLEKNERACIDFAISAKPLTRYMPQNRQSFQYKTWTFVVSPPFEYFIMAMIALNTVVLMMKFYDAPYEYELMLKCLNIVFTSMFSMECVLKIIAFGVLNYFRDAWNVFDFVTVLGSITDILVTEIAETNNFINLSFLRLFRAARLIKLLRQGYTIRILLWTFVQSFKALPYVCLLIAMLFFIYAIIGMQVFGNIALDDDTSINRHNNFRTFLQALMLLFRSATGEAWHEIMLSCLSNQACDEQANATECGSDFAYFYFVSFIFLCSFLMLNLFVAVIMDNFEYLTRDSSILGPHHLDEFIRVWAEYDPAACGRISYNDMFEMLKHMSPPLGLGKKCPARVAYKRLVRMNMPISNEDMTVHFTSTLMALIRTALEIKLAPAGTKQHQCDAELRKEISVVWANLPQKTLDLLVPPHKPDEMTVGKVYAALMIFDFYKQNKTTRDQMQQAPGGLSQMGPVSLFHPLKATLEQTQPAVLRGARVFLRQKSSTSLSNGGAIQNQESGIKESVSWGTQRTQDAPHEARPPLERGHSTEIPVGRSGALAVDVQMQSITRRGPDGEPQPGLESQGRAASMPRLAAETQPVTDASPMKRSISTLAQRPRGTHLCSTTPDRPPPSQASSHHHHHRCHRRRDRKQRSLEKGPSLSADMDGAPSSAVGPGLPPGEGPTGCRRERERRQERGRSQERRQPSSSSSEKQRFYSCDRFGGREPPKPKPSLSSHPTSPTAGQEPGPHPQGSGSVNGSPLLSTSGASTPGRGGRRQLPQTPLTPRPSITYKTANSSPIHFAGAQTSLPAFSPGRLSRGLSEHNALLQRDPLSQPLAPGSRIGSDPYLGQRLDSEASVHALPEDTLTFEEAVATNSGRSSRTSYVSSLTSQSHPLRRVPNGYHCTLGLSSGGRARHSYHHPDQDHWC
T1 sequence (Q02410 whole entry): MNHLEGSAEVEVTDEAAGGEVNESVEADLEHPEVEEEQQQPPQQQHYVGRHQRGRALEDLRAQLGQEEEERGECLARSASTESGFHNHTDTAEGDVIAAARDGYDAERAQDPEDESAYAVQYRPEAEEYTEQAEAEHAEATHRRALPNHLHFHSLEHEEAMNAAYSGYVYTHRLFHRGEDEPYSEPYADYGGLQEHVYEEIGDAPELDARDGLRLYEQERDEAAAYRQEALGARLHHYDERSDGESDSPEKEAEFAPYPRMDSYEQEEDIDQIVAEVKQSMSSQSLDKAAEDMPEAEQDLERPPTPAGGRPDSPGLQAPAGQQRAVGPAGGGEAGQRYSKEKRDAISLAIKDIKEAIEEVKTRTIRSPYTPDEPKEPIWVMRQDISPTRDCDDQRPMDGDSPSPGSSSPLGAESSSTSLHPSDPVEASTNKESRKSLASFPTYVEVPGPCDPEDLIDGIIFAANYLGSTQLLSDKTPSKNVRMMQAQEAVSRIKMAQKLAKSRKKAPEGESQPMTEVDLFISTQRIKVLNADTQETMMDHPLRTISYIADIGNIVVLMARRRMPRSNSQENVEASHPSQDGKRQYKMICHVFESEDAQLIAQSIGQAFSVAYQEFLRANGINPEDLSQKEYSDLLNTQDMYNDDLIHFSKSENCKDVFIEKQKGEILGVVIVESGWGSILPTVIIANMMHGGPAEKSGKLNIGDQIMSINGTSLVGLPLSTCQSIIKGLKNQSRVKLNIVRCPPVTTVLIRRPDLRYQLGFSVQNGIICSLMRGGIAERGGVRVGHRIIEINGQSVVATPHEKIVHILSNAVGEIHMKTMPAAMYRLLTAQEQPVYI
DNA dC->dU-editing enzyme APOBEC-3G, sequence (Q9HC16 whole entry): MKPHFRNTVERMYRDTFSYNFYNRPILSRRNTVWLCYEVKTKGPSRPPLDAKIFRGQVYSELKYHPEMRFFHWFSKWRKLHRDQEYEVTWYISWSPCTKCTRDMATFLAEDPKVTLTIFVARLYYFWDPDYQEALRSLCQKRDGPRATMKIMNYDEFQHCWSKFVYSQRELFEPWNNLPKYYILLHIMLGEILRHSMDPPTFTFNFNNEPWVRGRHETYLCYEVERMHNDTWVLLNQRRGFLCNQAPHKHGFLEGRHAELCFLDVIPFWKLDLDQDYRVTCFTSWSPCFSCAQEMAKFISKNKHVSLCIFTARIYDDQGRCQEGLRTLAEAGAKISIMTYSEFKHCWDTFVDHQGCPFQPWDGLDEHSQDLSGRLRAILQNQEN

For CCOC(=O)C1CCCN(C(=O)Cn2sc3nc(C)cc(C)c3c2=O)C1 (stereo unspecified), the EC50 [1] was 25.9 µM (active), the AC50 [2] was 12.5 µM (active) and the IC50 [3] was 6.17 µM (active). For the same compound, the AC50 [4] was 7.5 µM (active), the AC50 [5] was > 70 µM (inactive) and the EC50 [6] was 21.6 µM (active). For the same compound, the IC50 [7] was 12.6 µM (active), the IC50 [8] was > 50 µM (inactive) and the IC50 [9] was 47.1 µM (inactive).

With COC(=O)NC(/C(C(=O)OC)=C(\C)NCc1ccccc1)c1ccc2ccccc2c1 (stereo unspecified) the AC50 (Cytochrome P450 2C9) was 1 µM (inconclusive) and the AC50 (Cytochrome P450 3A4) was 3.98 µM (inconclusive).

For COc1cc(-c2nnc(SCc3c(F)cccc3Cl)o2)cc(OC)c1OC, the IC50 (cells) was 9.1 µM (active) and the CC50 [10] was 29.9 µM (active).

For Cc1c(CC(=O)N2CCN(C(=O)C3COc4ccccc4O3)CC2)c(=O)oc2cc(O)cc(O)c12 (stereo unspecified), the IC50 (cells) was 3.62 µM (active).

In the case of COc1ccccc1NS(=O)(=O)c1ccc(OC)c2ncccc12, the IC50 [11] is reported as > 100 µM (not active) and the IC50 [12] is reported as > 100 µM (inactive).

In the case of CCCOc1ccc(CN(CCC#N)C(=S)NC(=O)c2ccccc2)cc1, the IC50 (Beta-galactosidase) is reported as > 66.6 µM (inactive).

For CCOC(=O)c1cc(-c2cccc(C(F)(F)F)c2)n[nH]1, the IC50 [11] was > 100 µM (not active) and the IC50 [12] was > 100 µM (inactive).

With NCCC[C@@H](CC(=O)N[C@@H]1CCNC[C@H]1C(=O)N[C@H](CC(=O)N[C@@H](CCC(=O)O)CC(=O)O)Cc1c[nH]c2ccccc12)NC(=O)C[C@H](CO)NC(=O)[C@@H]1CNCC[C@H]1N the AC50 (Cytochrome P450 2C9) was 39.8 µM (inconclusive).

In the case of CCOc1cc(C)ccc1S(=O)(=O)Nc1cccnc1, the IC50 [11] is reported as > 100 µM (not active) and the IC50 [12] is reported as > 100 µM (inactive).

In the case of COc1ccc(NS(=O)(=O)c2cc(C(=O)N3CCC3)ccc2C)cc1, the IC50 [13] is reported as > 20 µM (inactive), the IC50 (Bcl-2-related protein A1) is reported as > 20 µM (inactive) and the IC50 [14] is reported as 19.8 µM (active).

For C#CCOCCOCCOCCNc1nc(N2CCN(C(=O)C([C@@H](C)O)n3cc([C@@H](N)CCCCN)nn3)CC2)nc(N2CCN(C(=O)[C@H](CCCN=C(N)N)n3cc(C(N)[C@@H](C)CC)nn3)CC2)n1 (stereo partly specified), the IC50 [13] was 7.99 µM (active), the IC50 (Bcl-2-related protein A1) was > 20 µM (inactive) and the IC50 [14] was 12.1 µM (active).

For O=[N+]([O-])c1ccc(N/N=C/c2cccc(O)c2O)cc1, the IC50 (Beta-galactosidase) was > 66.6 µM (inactive).

In the case of O=c1cc(-c2ccccc2O)oc2ccc3ccccc3c12, the AC50 (Cytochrome P450 2C9) is reported as 31.6 µM (inconclusive) and the AC50 (Cytochrome P450 3A4) is reported as 31.6 µM (inconclusive).

— ChEMBL document CHEMBL1201862, “PubChem BioAssay data set” (2004)
